Results on 19 sequences are retold here after PMC8955265, “Systematic Discovery of FBXW7-Binding Phosphodegrons Highlights Mitogen-Activated Protein Kinases as Important Regulators of Intracellular Protein Levels” (International Journal of Molecular Sciences, 2022).

In this assay the test system is FBXW7. Kind of assay: Ratiometric EGFP/DsRed protein degradation assay with degron probes. The class given is cell-based, human. As to conditions: putative degron motif in EGFP-fused probe with AAKG2 MAPK docking motif; HEK293T, 48 h after transfection, EGFP/DsRed ratio with and without FBXW7 plasmid; search cycles 1-4. From the text:
In order to be able to test putative phosphodegron motifs, a ratiometric protein level monitoring method was adapted to monitor MAPK controlled FBXW7 mediated protein degradation. Briefly, intact DsRed and an EGFP-chimera were expressed in HEK293T cells in equal amounts from an expression plasmid, giving an EGFP/DsRed fluorescence ratio close to one under non-degrading conditions. EGFP was fused to a probe comprised of a putative degron sequence and a known MAPK binding docking motif. EGFP signal is expected to diminish faster than DsRed in cells with more FBXW7 if the probe responded to degradation.
We started out from an intentionally general consensus motif of FBXW7 degrons, inspired by the liberal [TS]P..[TS]P pattern defined for yeast Cdc4 substrates, and scanned the human disordered part of the proteome using SliMSearch4 (the disorder score cut-off was 0.4 and flank length was 5). In all, 22 motifs from this list were subjectively chosen and tested in the ratiometric degradation assay giving only 5 positives (see Supplementary Table S1). Based on the results of this first round, by taking information both from the identified positives and negatives, the consensus motif definition was narrowed to requiring a proline at P + 2, but motifs were allowed to have a phospho-mimicking residue (D or E) at P + 4 because it had been formerly reported that this second phosphorylatable residue may be replaced by aspartate or glutamate. […] In the third round, hydrophobic amino acids were more strictly required at positions −1/−2 and P − 1/2/3 positions were further narrowed and P + 4 position was relaxed based on the identified negatives, which gave a higher hit rate (4 out of 6). This third round gave functional motifs at a good rate, but the used motif definition was very restrictive compared to other known motifs. Finally, in the fourth round, we gave up using an optimal consensus and established the positional relaxation model. […] Hits on this final, most predictive list are presented in Supplementary Table S2. All entries were filtered for motif locations by UniProt annotations, discarding all enzyme-inaccessible (e.g., extracellular) instances. Motifs that had any overlapping PFAM domain indicated were manually assessed using the AlphaFold EBI website. Out of these, only motifs that were highly accessible and located outside of confidently predicted folded domains were kept. We also added kinase consensus compatibility to every motif and the number of experiments where phosphorylation could be detected from PhosphoSitePlus.
The chimera degron module was ordered from IDT as gene Block (gBlock). It consisted of a coiled coil dimerization motif (GCN4: EELLSKNYHLENEVARLKK) to increase sensitivity by allowing multivalent binding, a MAPK binding docking motif (AAKG2: KKNASQKRRSLRVHIPDL), and the CycECO degron motif. The motifs were separated by Gly-Ser-Asn linkers and the gBlock was designed so that the motifs could be easily changed by using unique sets of restriction endonucleases. The gBlock was sub-cloned into the Gateway pENTR4 entry plasmid (Thermo Fisher, Waltham, MA, USA) using restriction enzymes (SalI and NotI). The pENTR4-chimera and the destination plasmid (MSCV-CMV-DsRed-IRES-EGFP-DEST from Addgene; 41941), [28]) were subjected to gateway cloning using LR clonase II enzyme (Invitrogen) to obtain the first DsRed-EGFP-chimera DNA construct containing the cycECO degron. Oligonucleotides corresponding to different degron sequences and docking motifs were ligated into the DsRed-EGFP-chimera DNA construct. The list of all the oligonucleotides used for cloning is provided in Supplementary Table S3. pcDNA3-FLAG-FBXW7α was a kind gift from Michael Pagano (New York University). The FBXW7 arginine mutant (Arg mutant: R465C; R479Q; R505L) was created using two-step PCR and cloned into the pcDNA3-FLAG plasmid. […]

Regarding “KHSNSPPLVTPPQSPVSPQPPA [SMTL2, putative FBXW7 degron motif tested as EGFP-fused degradation probe]”, the Outcome result is “Positive (tested positive, where +FBXW7/control protein level ratio was lower than 1)”.

Consider “AIRQSPSPPPEESRG [PDE4A, putative FBXW7 degron motif tested as EGFP-fused degradation probe]”, for which the Outcome result was “Negative”.

With “VAVSPTPPVSPEVRST [CEP164, putative FBXW7 degron motif tested as EGFP-fused degradation probe]”, the Outcome result is on record as “Negative”.

Take “PPLQVPPSPPASPPMSPS [PRR36, putative FBXW7 degron motif tested as EGFP-fused degradation probe]”: the Outcome entry was “Positive (tested positive, where +FBXW7/control protein level ratio was lower than 1)”.

Consider “SPFHGSSPPQSTPLSPPPLTPK [DOCK5, putative FBXW7 degron motif tested as EGFP-fused degradation probe]”, for which the Outcome result is listed as “Negative”.

For the sequence “GEAAGSPVPTPPRSPAQEE [Bcl2L12, putative FBXW7 degron motif tested as EGFP-fused degradation probe]”, the Outcome result is “Negative”.

Regarding “SPGDSPPGTPPASPPSSAWQ [TBC1D4, putative FBXW7 degron motif tested as EGFP-fused degradation probe]”, the Outcome result is “Negative”.

For the sequence “GGHLESPARSLPQRP [FAAP20, putative FBXW7 degron motif tested as EGFP-fused degradation probe]”, the Outcome entry is recorded as “Negative”.

Turning to “AHELPLTPPADPSYPY [SP5, putative FBXW7 degron motif tested as EGFP-fused degradation probe]”, the Outcome result was “Positive (tested positive, where +FBXW7/control protein level ratio was lower than 1)”.

As for “PSFPPTPPTPPASPPHTPV [EIF4G3, putative FBXW7 degron motif tested as EGFP-fused degradation probe]”, the Outcome result was “Positive (tested positive, where +FBXW7/control protein level ratio was lower than 1)”.

Regarding “APPIPSPPPSPPPSPAPLEP [CAMTA2, putative FBXW7 degron motif tested as EGFP-fused degradation probe]”, the Outcome entry was “Positive (tested positive, where +FBXW7/control protein level ratio was lower than 1)”.

“QGYLSPESSPPASPVPACS [CREB5, putative FBXW7 degron motif tested as EGFP-fused degradation probe]”: the Outcome result is given as “Negative”.

Regarding “FSYQESPPRSPRRMSFSG [AAKG2, putative FBXW7 degron motif tested as EGFP-fused degradation probe]”, the Outcome entry was “Negative”.

With “QQAPLTPPNTPDPRSPPNPDNIA [Myozenin2, putative FBXW7 degron motif tested as EGFP-fused degradation probe]”, the Outcome entry is recorded as “Positive (tested positive, where +FBXW7/control protein level ratio was lower than 1)”.

With “GEGDRGVSPPPSPFFSAI [FRY, putative FBXW7 degron motif tested as EGFP-fused degradation probe]”, the Outcome entry is given as “Negative”.

Take “DLLAALPTPPHNQTEDV [KMT2D-3rd, putative FBXW7 degron motif tested as EGFP-fused degradation probe]”: the Outcome result is given as “Positive (tested positive, where +FBXW7/control protein level ratio was lower than 1)”.

As to “PRPPRPPSPPPEPETTD [SETD1B, putative FBXW7 degron motif tested as EGFP-fused degradation probe]”, the Outcome entry is reported as “Negative”.

Turning to “PSTTVGSHSPPETPVLTR [ZMYND1 or 8, putative FBXW7 degron motif tested as EGFP-fused degradation probe]”, the Outcome result is “Negative”.

“AVRTPPRTPNIV [KSR2-a, putative FBXW7 degron motif tested as EGFP-fused degradation probe]”: the Outcome entry was “Negative”.
